From US20140057915A1, “KINASE INHIBITORS” (TOPIVERT PHARMA LIMITED, priority 2012, published 2014) come the findings set out here.

As usually defined, the IC50 is the concentration at which inhibition is half-maximal.

One data set addresses cSrc (Homo sapiens, UniProt P12931). The data set is described as follows: c-Src enzyme inhibition (FRET). Type of data set: biochemical. Particulars: Table 4a1. In a few lines:
(§1)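 Enzyme was preincubated with test compound (added as 4, 0.4, 0.04 or 0.004 μg/mL solutions) for 2 hr at RT. FRET peptide (8 μM solution) and ATP solution (800 μM for c-Src, 60 μM for Syk) were then added for 1 hr, followed by 1 hr protease development.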

In data set [1] the target is T1, GSK3α (Homo sapiens, UniProt P49840). Nature of the data set: GSK 3α enzyme inhibition (FRET), Method 1. Conditions: Table 4a1. Type of data set: biochemical. In a few lines: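 Inhibition is scored from phosphorylation of a dual-labelled synthetic peptide, measured by FRET after protease cleavage of unphosphorylated substrate. Incubations are 2 hr compound with enzyme, then 1 hr kinase reaction.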

Data set [2] relates to ICAM-1 expression, BEAS2B cells. The data set is described as follows: Poly I:C-induced ICAM-1 expression in BEAS2B cells. Type of data set: cell-based. Particulars: Homo sapiens, BEAS-2B; read-out: Poly IC induced ICAM1 in BEAS2B, IC50. The method in brief: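 BEAS2B human bronchial epithelial cells pre-incubated 2 h with compound, then transfected with poly I:C (1 μg/mL) plus Oligofectamine. After 18 h, cell-surface ICAM-1 read by cell-based ELISA (A450–655), normalised to Crystal Violet cell number (A595); inhibition calculated against vehicle control at each concentration.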

The subject of a further data set is d-U937 cells. The data set is described as follows: Cell viability: MTT assay. Conditions: 1 μg/mL. Type of data set: cell-based, human. In a few lines:
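Differentiated U937 cells exposed to compound at 1 or 10 μg/mL, either 4 h in 5% FCS or 24 h in 10% FCS RPMI1640. MTT then added for 1 h, formazan dissolved in DMSO and read at 550 nm. Viability loss given as % versus 0.5% DMSO vehicle; apparent gains appear negative.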
A general note: Tetrazolium assays rely on reduction of a dye to a coloured formazan, in cell work by metabolically active cells.

The test system of data set [3] is IL-8 release, d-U937 cells. Nature of the data set: LPS-induced IL-8 release in d-U937 cells. Type of data set: cell-based. Conditions: Homo sapiens, dU937; Table 4c1; read-out: LPS Induced Release of Cytokine in d-U937 Cells, IL-8 IC50. The method in brief: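 IL-8 release after a 4 hr challenge with LPS (0.1 μg/mL, E. coli 0111:B4) following a 2 hr compound pretreatment. Cells were human U937 monocytes differentiated to macrophage-type with PMA 100 ng/mL for 48–72 hr. Relative 50% effective concentration derived from concentration–response data.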

For data set [4], the system named is TNFα release, d-U937 cells. The data set is described as follows: LPS-induced TNFα release in d-U937 cells. Conditions: Homo sapiens, dU937; relative to 10 μg/mL BIRB796; Table 4c1; read-out: LPS Induced Release of Cytokine in d-U937 Cells, TNFα REC50. Type of data set: cell-based. In a few lines: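 U937 cells differentiated with PMA (100 ng/mL, 48–72 hr), pre-treated with compound for 2 hr, then stimulated with E. coli LPS (0.1 μg/mL) for 4 hr. Supernatant cytokine measured by sandwich ELISA; inhibition versus vehicle control, REC50 from concentration-response curve.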

In another data set the target is Syk (Homo sapiens, UniProt P43405). Nature of the data set: Syk enzyme inhibition (FRET). Type of data set: biochemical. Conditions: Table 4a1. The method in brief:
as §1

For the next data set, the system named is IL-8 release, PBMCs. The data set is described as follows: LPS-induced IL-8 release in PBMC cells. Type of data set: cell-based. Conditions: Homo sapiens, LPS stimulated, read-out: IC50 Values for Inhibition of Cytokine Release, PBMCs, IL-8. The method, then:
(b) LPS-Induced TNFα/IL-8 Release in PBMC Cells
Peripheral blood mononuclear cells (PBMCs) from healthy subjects are separated from whole blood using a density gradient (Lymphoprep, Axis-Shield Healthcare). The PBMCs are seeded in 96 well plates and treated with compounds at the desired concentration for 2 hours before addition of 1 ng/ml LPS (Escherichia Coli 0111:B4 from Sigma Aldrich) for 24 hours under normal tissue culture conditions (37° C., 5% CO2). The supernatant is harvested for determination of […] concentrations by sandwich ELISA (Duo-set, R&D systems) and read on the fluorescence microplate reader (Varioskan® Flash, ThermoFisher Scientific).

Data set [5] addresses T1, GSK3α. The data set is described as follows: GSK 3α enzyme inhibition (FRET), Method 2. Type of data set: biochemical. Particulars: Table 4a2, different laboratory.

Chain of cSrc (P12931 whole entry): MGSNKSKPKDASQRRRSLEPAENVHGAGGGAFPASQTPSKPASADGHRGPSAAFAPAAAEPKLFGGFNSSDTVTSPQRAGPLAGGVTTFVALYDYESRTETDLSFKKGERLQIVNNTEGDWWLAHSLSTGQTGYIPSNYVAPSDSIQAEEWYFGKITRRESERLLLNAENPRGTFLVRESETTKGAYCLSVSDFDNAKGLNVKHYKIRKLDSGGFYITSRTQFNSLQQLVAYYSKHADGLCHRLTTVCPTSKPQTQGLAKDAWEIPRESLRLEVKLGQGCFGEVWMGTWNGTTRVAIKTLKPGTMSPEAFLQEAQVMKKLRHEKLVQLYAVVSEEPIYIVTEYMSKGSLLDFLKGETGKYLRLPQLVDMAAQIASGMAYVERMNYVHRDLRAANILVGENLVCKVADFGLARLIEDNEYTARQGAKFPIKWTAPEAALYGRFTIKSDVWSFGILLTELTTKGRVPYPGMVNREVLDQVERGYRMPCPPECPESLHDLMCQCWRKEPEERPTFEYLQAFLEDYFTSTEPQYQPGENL
T1 sequence (P49840 whole entry): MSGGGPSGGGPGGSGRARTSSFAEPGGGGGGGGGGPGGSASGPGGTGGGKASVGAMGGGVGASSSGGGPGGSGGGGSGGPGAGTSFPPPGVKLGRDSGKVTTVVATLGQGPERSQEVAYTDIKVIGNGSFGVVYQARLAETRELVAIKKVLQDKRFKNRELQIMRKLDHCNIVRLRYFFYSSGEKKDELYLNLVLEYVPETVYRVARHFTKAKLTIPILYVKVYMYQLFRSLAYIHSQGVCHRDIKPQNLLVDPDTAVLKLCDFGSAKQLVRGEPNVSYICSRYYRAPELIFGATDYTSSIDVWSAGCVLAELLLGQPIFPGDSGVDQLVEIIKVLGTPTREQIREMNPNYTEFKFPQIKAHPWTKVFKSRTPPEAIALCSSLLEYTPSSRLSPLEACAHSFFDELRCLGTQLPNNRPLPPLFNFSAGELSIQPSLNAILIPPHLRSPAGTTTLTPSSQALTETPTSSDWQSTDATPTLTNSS

With `COc1cc(Nc2nccc(Oc3ccc(NC(=O)Nc4cc(C(C)C)nn4-c4ccc(C)cc4)c4ccccc34)n2)cc(C(=O)N(C)CCN2CCOCC2)c1` [Example 68, 3-((4-((4-(3-(3-isopropyl-1-(p-tolyl)-1H-pyrazol-5-yl)ureido)naphthalen-1-yl)oxy)pyrimidin-2-yl)amino)-5-methoxy-N-methyl-N-(2-morpholinoethyl)benzamide], the IC50 at cSrc was less than 1 nM; at GSK3α [1], 111 nM; in [2] it was 3.9 nM; in data set [3] it was 0.5 nM; at Syk, 2 nM. For the same compound, in the data set on d-U937 cells, the “Cell viability at time point in d-U937 cells, 4 h” value is “−ve (−ve and +ve indicate that the value is below and above respectively, the no significant effect threshold, defined as 30% inhibition at 1 μg/mL at the time point indicated)”. Further, in the data set on d-U937 cells, the “Cell viability at time point in d-U937 cells, 24 h” value (shortened to “Cell viability at time point … 24 h”) is “−ve (−ve and +ve indicate that the value is below and above respectively, the no significant effect threshold, defined as 30% inhibition at 1 μg/mL at the time point indicated)”. The EC50 in data set [4] was 0.2 nM.

Turning to `COc1cc(Nc2nccc(Oc3ccc(NC(=O)Nc4cc(C(C)C)nn4-c4ccc(C)cc4)c4ccccc34)n2)cc(C(=O)N2CCN(C)CC2)c1` [Example 69, 1-(3-isopropyl-1-(p-tolyl)-1H-pyrazol-5-yl)-3-(4-((2-((3-methoxy-5-(4-methylpiperazine-1-carbonyl)phenyl)amino)pyrimidin-4-yl)oxy)naphthalen-1-yl)urea], the IC50 on cSrc was 1 nM; at GSK3α [1], 282 nM; in data set [2], 7.5 nM; in data set [3], 0.3 nM; on Syk, 8 nM. In the data set on d-U937 cells, the “Cell viability at time point in d-U937 cells, 4 h” value was “−ve (−ve and +ve indicate that the value is below and above respectively, the no significant effect threshold, defined as 30% inhibition at 1 μg/mL at the time point indicated)”. Moreover, the “Cell viability at time point … 24 h” value in the data set with d-U937 cells was “−ve (−ve and +ve indicate that the value is below and above respectively, the no significant effect threshold, defined as 30% inhibition at 1 μg/mL at the time point indicated)”. Moreover, the EC50 in data set [4] worked out at 0.2 nM.

On to `COc1ccc(Nc2nccc(Oc3ccc(NC(=O)Nc4cc(C(C)C)nn4-c4ccc(C)cc4)c4ccccc34)n2)cc1C(=O)NCCN1CCOCC1` [Example 70, 5-((4-((4-(3-(3-isopropyl-1-(p-tolyl)-1H-pyrazol-5-yl)ureido)naphthalen-1-yl)oxy)pyrimidin-2-yl)amino)-2-methoxy-N-(2-morpholinoethyl)benzamide], for which the IC50 was found to be 2 nM on cSrc; 525 nM against GSK3α [1]; 8.9 nM in data set [2]; 1.5 nM in data set [3]; 22 nM at Syk. In addition, the “Cell viability at time point in d-U937 cells, 4 h” value in the data set on d-U937 cells is “−ve (−ve and +ve indicate that the value is below and above respectively, the no significant effect threshold, defined as 30% inhibition at 1 μg/mL at the time point indicated)”. Moreover, the “Cell viability at time point … 24 h” value with d-U937 cells is “−ve (−ve and +ve indicate that the value is below and above respectively, the no significant effect threshold, defined as 30% inhibition at 1 μg/mL at the time point indicated)”. Also, the EC50 in data set [4] was determined as 0.6 nM.

As to `COc1cc(Nc2cc(Oc3ccc(NC(=O)Nc4cc(C(C)C)nn4-c4ccc(C)cc4)c4ccccc34)ncn2)cc(C(=O)NCCN2CCOCC2)c1` [Example 71, 3-((6-((4-(3-(3-isopropyl-1-(p-tolyl)-1H-pyrazol-5-yl)ureido)naphthalen-1-yl)oxy)pyrimidin-4-yl)amino)-5-methoxy-N-(2-morpholinoethyl)benzamide], the IC50 against cSrc was less than 1 nM; at GSK3α [1] it was 5770 nM; in data set [2] it was 7.3 nM; in [3], 1.9 nM; against Syk, 547 nM. The “Cell viability at time point in d-U937 cells, 4 h” value in the data set with d-U937 cells was “−ve (−ve and +ve indicate that the value is below and above respectively, the no significant effect threshold, defined as 30% inhibition at 1 μg/mL at the time point indicated)”. Moreover, the “Cell viability at time point … 24 h” value in the data set with d-U937 cells was “−ve (−ve and +ve indicate that the value is below and above respectively, the no significant effect threshold, defined as 30% inhibition at 1 μg/mL at the time point indicated)”. Moreover, in [4], the EC50 came to 2.7 nM.

Consider `COc1cc(Nc2cc(Oc3ccc(NC(=O)Nc4cc(C(C)(C)C)nn4-c4ccc(C)cc4)c4ccccc34)ncn2)cc(C(=O)NCCN2CCOCC2)c1` [Example 72], for which the IC50 against cSrc is 4 nM; on GSK3α [1], more than 13000 nM; in [2], 2.6 nM; in data set [3] it was 2.1 nM; against Syk it was 202 nM. The “Cell viability at time point in d-U937 cells, 4 h” value with d-U937 cells was “−ve (−ve and +ve indicate that the value is below and above respectively, the no significant effect threshold, defined as 30% inhibition at 1 μg/mL at the time point indicated)”. Moreover, the “Cell viability at time point … 24 h” value in the data set with d-U937 cells was “−ve (−ve and +ve indicate that the value is below and above respectively, the no significant effect threshold, defined as 30% inhibition at 1 μg/mL at the time point indicated)”. For the same compound, the EC50 in data set [4] amounted to 1.2 nM.

On to `C#Cc1cc(Nc2nccc(Oc3ccc(NC(=O)Nc4cc(C(C)(C)C)nn4-c4ccc(OC)nc4)c4ccccc34)n2)cc(C(=O)NCCN2CCOCC2)c1` [Example 73, 3-((4-((4-(3-(3-(tert-Butyl)-1-(6-methoxypyridin-3-yl)-1H-pyrazol-5-yl)ureido)naphthalen-1-yl)oxy)pyrimidin-2-yl)amino)-5-ethynyl-N-(2-morpholinoethyl)benzamide], for which the half-inhibitory concentration (IC50) in the data set on IL-8 release, PBMCs came to 0.5 nM; on GSK3α [5], 402 nM.

As for `C#Cc1cc(Nc2nccc(Oc3ccc(NC(=O)Nc4cc(C(F)(F)C(F)(F)F)nn4-c4ccc(C)cc4)c4ccccc34)n2)cc(C(=O)NCCN2CCOCC2)c1` [Example 74, 3-Ethynyl-N-(2-morpholinoethyl)-5-((4-((4-(3-(3-(perfluoroethyl)-1-(p-tolyl)-1H-pyrazol-5-yl)ureido)naphthalen-1-yl)oxy)pyrimidin-2-yl)amino)benzamide], the IC50 in the data set with IL-8 release, PBMCs is 4.1 nM; against GSK3α [5] it was not below 12100 nM.

With `C#Cc1cc(Nc2nccc(Oc3ccc(NC(=O)Nc4cc(C(C)(C)OC)nn4-c4ccc(C)cc4)c4ccccc34)n2)cc(C(=O)NCCN2CCOCC2)c1` [Example 79, 3-Ethynyl-5-((4-((4-(3-(3-(2-methoxypropan-2-yl)-1-(p-tolyl)-1H-pyrazol-5-yl)ureido)naphthalen-1-yl)oxy)pyrimidin-2-yl)amino)-N-(2-morpholinoethyl)benzamide], the IC50 in the data set with IL-8 release, PBMCs was 1.1 nM; against GSK3α [5], 756 nM.

Regarding `C#Cc1cc(Nc2nccc(Oc3ccc(NC(=O)Nc4cc(C(C)C)nn4-c4ccc(C)cc4)c(F)c3F)n2)cc(C(=O)NCCN2CCOCC2)c1` [Example 88, 3-((4-(2,3-Difluoro-4-(3-(3-isopropyl-1-(p-tolyl)-1H-pyrazol-5-yl)ureido)-phenoxy)pyrimidin-2-yl)amino)-5-ethynyl-N-(2-morpholinoethyl)benzamide], the IC50 with IL-8 release, PBMCs was found to be 13.1 nM; against GSK3α [5], 172 nM.

Regarding `C#Cc1cc(Nc2nccc(Oc3ccc(NC(=O)Nc4cc(C(C)C)nn4-c4ccc(C)cc4)c(Cl)c3Cl)n2)cc(C(N)=O)c1` [Example 89, 3-((4-(2,3-Dichloro-4-(3-(3-isopropyl-1-(p-tolyl)-1H-pyrazol-5-yl)ureido)-phenoxy)pyrimidin-2-yl)amino)-5-ethynylbenzamide], the IC50 was 14.6 nM in the data set on IL-8 release, PBMCs and not below 15300 nM against GSK3α [5].
